Patent publication US10420770B2, “Compositions and methods for treating dementia” (EIP Pharma, LLC, priority 2016, dated 2019)
Where “and” joins values, the source holds several entries; their conditions need not be identical. Equal entries are not always repeated.

Columns and labels:
[1] = test system: DS (Down's Syndrome) human fibroblasts; assay: EEA1-labeled early endosomes in Down's Syndrome human fibroblasts (Example 4); assay type: cell-based; details: 0, 1, 10, or 50 nM VX-745 for 24 hours
Text: Down's Syndrome (DS, Trisomy 21) derived human fibroblasts provide a robust system for studying Alzheimer's related endosomal dysfunction as one of the Familial Alzheimer's disease (FAD) genes, Amyloid Precursor Protein (APP), is expressed on chromosome 21 and as a result inherently DS individuals overexpress APP and develop an Alzheimer's type dementia as they grow older beyond age 40 (Jiang, Y, et. al., “Alzheimer's-related endosome dysfunction in Down syndrome is Aβ-independent but requires APP and is reversed by BACE-1 inhibition,” PNAS 107:1630-1635 (2010)).
In vitro, DS human fibroblasts show increased numbers and enlarged early endosomes by electron microscopy or by fluorescence staining with antibodies to EEA1 (Early Endosome Antigen 1). […] After incubation, the cells were fixed and incubated with anti-EEA1 antibody to label early endosomes.

[2] = test system: patients with mild cognitive impairment (MCI) due to Alzheimer's disease (AD) or with mild AD; assay: MMSE, 6-week study (Example 2); assay type: in vivo, human; details: baseline vs day 40; no statistical analyses
Text: (§1) The MMSE is a questionnaire used extensively in clinical and research settings to measure mental function. It is commonly used to screen for dementia, and to assess the severity and progression of dementia. The MMSE is an effective way to document a human subject's response to treatment. The test examines functions including registration, attention and calculation, recall, language, ability to follow simple commands and orientation.
Subjects were men and women between 60-85 years old, having a confirmed diagnosis of MCI due to AD or mild AD (consistent with National Institute of Aging and Alzheimer's Association research diagnostic guidelines) and a Mini-Mental State Examination (MMSE) score greater than 20. Inclusion criteria included gradual and progressive decline in memory function reported by patients or informants over more than 6 months; an amnestic presentation on formal neuropsychological testing that was characterized by a pattern of rapid forgetting, as determined by the PI/subinvestigator; evidence of functional decline as evidenced by a CDR sum of box score of ≥0.5; and MMSE score of 17 to 30, inclusive. […] A total of 9 subjects were enrolled and all were included in safety analysis; 8 subjects completed 6 weeks treatment and were included in pharmacodynamics analysis. […]

[3] = Population pharmacokinetic analyses (Example 1 and Example 2 combined); assay type: in vivo, human; details: population PK
Experimental: Sixteen subjects completed the full 12 weeks of treatment and all were included in safety analyses. […] In the PK analysis, due to the sparse sampling collection design, the time period from 0 to 24 hours post-dose was divided into 4 blocks in order to show the distribution of concentrations over time. […] Average blood concentration of about 8 ng/mL at the 40 mg dose level was observed. This is higher than the 5 ng/mL.

brain metabolism = assay: Brain FDG PET scan, 6-week study; assay type: in vivo, human; details: baseline to day 40
Experimental: (§2) Quantitative EEG was conducted as a measure of the effects of inflammatory cytokines on synaptic function and the effects of modulation of p38 MAPK on synaptic plasticity. Brain fluorodeoxyglucose (FDG) PET scan was conducted at the Screening Visit and Day 40 to measure brain metabolism. In addition, CSF drug levels of VX-745 were obtained to confirm delivery of drug to the brain.

[4] = test system: patients with mild cognitive impairment (MCI) due to Alzheimer's disease (AD) or with mild AD; assay: Mini-Mental State Examination (MMSE), 12-week study (Example 1); assay type: in vivo, human; details: for subjects with an increase from screening of at least 1 in MMSE score: Day 84 (Visit 7)
Text: as §1
Investigators and patients were blind to the dosage strength. […] Patients were instructed to take doses within 30 minutes following a meal or snack, with each dose taken approximately 12 hours apart at the same times each day throughout the study.

interleukin-10 (IL-10) = assay: CSF cytokine measurement (Mesoscale Discovery), IL-10, 6-week study; assay type: in vivo, human; details: day 41; after VX-745 reached Cmax in the plasma
Experimental: Cytokine measurements of CSF samples were done to assess the balance of pro-inflammatory versus anti-inflammatory cytokines. The t-helper type 1/t-helper type 2 (TH1/TH2) multiplex cytokine (IFN-γ, IL-1β, IL-2, IL-4, IL-5, IL-8, IL-10, IL-12p70, IL-13, TNFα ) panel by Mescoscale Discovery were utilized to inform on effects on the relative balance of pro-inflammatory cytokines (e.g. IL-1β, TNFα) versus anti-inflammatory cytokines (e.g., IL-10).
Target engagement was assessed through the evaluation of the effect of drug treatment on CSF biomarkers. CSF was collected at 6 time-points over 24 hours at baseline (the 24 hours prior to first dose) and again at 6 time-points over 24 hours near the end of treatment on Day 40. The samples were evaluated by the Mesoscale Discovery ELISA platform for multiple cytokines ((IFN-γ, IL-1β, IL-2, IL-4, IL-5, IL-8, IL-12 protein 70, IL-13, TNFα, and CSF) and for amyloid-beta peptides (Aβ 38/40/42).

[5] = Plasma and CSF pharmacokinetics, 6-week Phase IIa study (Example 2); assay type: in vivo, human
Experimental: Investigators and patients were blinded to the dosage strength. The first 3 patients were randomly assigned to receive either 40 or 125 mg twice daily, with dosing level blinded. The remaining patients (up to 7 patients) received 40 mg twice daily on an open-label basis. […] Patients were instructed to eat a meal approximately 30 minutes before dosing with VX 745 with each dose taken approximately 12 hours (+/−3 hours) apart at the same times each day throughout the study.
as §2

## O=c1ncn2nc(Sc3ccc(F)cc3F)ccc2c1-c1c(Cl)cccc1Cl [VX-745]
[1]
  average number of EEA1-labeled endosomes per DS cell: significantly reduced
  average size of EEA1-labeled endosomes in DS cells: significantly reduced
[2]
  MMSE individual subject scores: overall trends are encouraging
[3]; 40 mg dose level
  median 12-hour exposure: 78 ng·h/mL
[3]; 125 mg dose level
  median 12-hour exposure: 116 ng·h/mL
[3]; human, plasma, oral, Examples 1 and 2 combined, read-out: terminal half-life (converted)
  half-life: ~16 h
Brain metabolism
  FDG-PET: no change
[4]; 40 mg group
  subjects with an increase from screening of at least 1 in MMSE score: approximately 50%
[4]; 40 mg group, FIG. 2
  patients with greater than a 3-point improvement in MMSE score over baseline: two of four
[4]; 125 mg group
  subjects with an increase from screening of at least 1 in MMSE score: ~33%
interleukin-10 (IL-10)
  CSF IL-10 change from baseline: decreased rapidly
[5]; 40 mg twice daily
  average blood drug concentration (CAVG): 8 ng/mL
[5]; extrapolated from CSF/plasma and preclinical data
  expected VX-745 concentrations in the brain: ~14 ng/mL and ~30 nM
[5]; human, CSF relative to plasma, oral, same time point, read-out: CSF drug levels as share of plasma drug levels
  Kp: 0.06
[5]; human, oral, 6-week study plasma PK, read-out: terminal half-life (converted)
  half-life: 10 h
[5]; human, plasma, oral, 40 mg twice daily
  Cmax: 23 ng/mL
